Active and inactive are the calls of the source. The calls are words filed in the database; no cut-off is given here.
Tests used:
[1] = target: Mitogen-activated protein kinase 9 (Homo sapiens, UniProt P45984); test: Inhibition of JNK2 (unknown origin) using biotinylated ATF2 by HTRF method
[2] = Inhibition of JNK in rat INS cells assessed as inhibition of c-jun phosphorylation; type: cell-based
[3] = target: Mitogen-activated protein kinase 10 (Homo sapiens, UniProt P53779); test: Inhibition of JNK3 (unknown origin) using biotinylated ATF2 by HTRF method
Chain of Mitogen-activated protein kinase 10 (P53779 whole entry): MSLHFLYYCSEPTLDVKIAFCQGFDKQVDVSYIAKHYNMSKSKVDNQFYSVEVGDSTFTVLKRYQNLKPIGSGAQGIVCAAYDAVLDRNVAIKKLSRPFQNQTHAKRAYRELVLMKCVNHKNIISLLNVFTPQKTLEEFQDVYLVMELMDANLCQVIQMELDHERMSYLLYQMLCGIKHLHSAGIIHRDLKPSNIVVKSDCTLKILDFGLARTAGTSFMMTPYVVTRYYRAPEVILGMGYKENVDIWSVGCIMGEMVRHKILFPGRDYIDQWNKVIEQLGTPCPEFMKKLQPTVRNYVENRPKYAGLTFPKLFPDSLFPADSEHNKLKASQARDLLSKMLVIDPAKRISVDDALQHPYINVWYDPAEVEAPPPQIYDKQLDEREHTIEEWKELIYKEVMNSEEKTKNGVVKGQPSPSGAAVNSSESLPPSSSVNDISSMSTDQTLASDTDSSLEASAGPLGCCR

Brain = test: Drug penetration in C57Bl6 mouse brain at 10 mg/kg by LC-MS/MS analysis relative to control; type: ADME, organism-based; design: dose 10 mg/kg; settings: in vivo
[4] = Half life in Sprague-Dawley rat at 1 mg/kg, iv and 2 mg/kg, po by LC-MS/MS analysis; type: ADME, organism-based; settings: in vivo
Rattus norvegicus [5] = test: (§1) AUC in Sprague-Dawley rat at 2 mg/kg, po by LC-MS/MS analysis; type: ADME, organism-based, Plasma; design: dose 2 mg/kg, route oral; settings: in vivo
[6] = Drug uptake in C57Bl6 mouse brain at 10 mg/kg after 2 hrs by LC-MS/MS analysis; type: ADME, organism-based; design: dose 10 mg/kg; settings: read-out: Drug uptake
[7] = Plasma concentration in C57Bl6 mouse at 10 mg/kg after 2 hrs by LC-MS/MS analysis; type: ADME, organism-based; design: dose 10 mg/kg
Rattus norvegicus [8] = test: (§2) Oral bioavailability in Sprague-Dawley rat at 2 mg/kg by LC-MS/MS analysis; type: ADME, organism-based; settings: in vivo
[9] = as §1; type: ADME, organism-based, Plasma; design: dose 2 mg/kg, route oral; settings: Sprague-Dawley, plasma
[10] = Clearance in Sprague-Dawley rat at 1 mg/kg, iv and 2 mg/kg, po by LC-MS/MS analysis; type: ADME, organism-based; settings: in vivo
[11] = as §2; type: ADME, organism-based; settings: Sprague-Dawley, in vivo
[12] = target: T1, c-Jun N-terminal kinase, JNK (Homo sapiens, UniProt P45983+P53779+P45984); settings: U-87MG ATCC
Description: Inhibition of JNK in human U87MG cells overexpressing EGFR V3 mutant assessed as inhibition of c-jun phosphorylation at 0.1 to 3 uM after 6 hrs by Western blotting analysis

[13] = target: T1, c-Jun N-terminal kinase, JNK; test: Inhibition of JNK in human U87MG cells overexpressing EGFR V3 mutant assessed as inhibition of c-jun phosphorylation after 6 hrs by ELISA; type: cell-based; settings: u-87mg atcc

Chain of Mitogen-activated protein kinase 9 (P45984 whole entry): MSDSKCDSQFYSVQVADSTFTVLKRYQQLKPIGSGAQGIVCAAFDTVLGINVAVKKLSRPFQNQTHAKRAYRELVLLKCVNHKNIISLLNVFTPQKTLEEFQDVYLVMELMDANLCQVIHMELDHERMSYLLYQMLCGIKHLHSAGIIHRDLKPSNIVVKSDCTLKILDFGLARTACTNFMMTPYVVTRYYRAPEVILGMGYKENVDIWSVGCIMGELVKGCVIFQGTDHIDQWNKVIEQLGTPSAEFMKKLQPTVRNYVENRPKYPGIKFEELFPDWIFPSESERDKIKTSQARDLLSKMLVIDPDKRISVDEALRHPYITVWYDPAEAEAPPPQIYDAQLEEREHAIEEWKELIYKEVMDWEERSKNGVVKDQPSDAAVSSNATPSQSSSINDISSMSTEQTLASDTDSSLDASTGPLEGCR

Row | IC50 [1] [nM] | IC50 [3] [nM] | SMILES | other results
1 | 120 | 160 | CNC(=O)c1ccccc1Nc1cc(Nc2ccc(N3CCOCC3)cc2OC)ncc1C(F)(F)F [VS-4718] | IC50 [2]: > 3000 nM
2 |  | 12000 | O=C(Nc1ccccc1)c1ccccc1Nc1ccnc(Nc2ccc(N3CCOCC3)cc2)c1 | 
3 | 3 | 0.78 | COc1cc(N2CCOCC2)ccc1Nc1ncc(Cl)c(Nc2ccccc2C(N)=O)n1 | Drug uptake (Brain): 17%; half-life [4]: 1 h; AUC (Rattus norvegicus [5]): 0.4 µM·h; IC50 [2]: 3 nM; concentration at 2 h [6]: 930 nM; concentration at 2 h [7]: 5500 nM; F (Rattus norvegicus [8]): 30%
4 |  | 1000 | COc1cc(N2CCOCC2)ccc1Nc1cc(Nc2ccccc2C(=O)N(C)C)c(C(F)(F)F)cn1 | 
5 |  | > 20000 | O=C(NCc1ccccc1)c1ccccc1Nc1ccnc(Nc2ccc(N3CCOCC3)cc2)c1 | 
6 | 0.6 | 0.3 | NC(=O)c1ccccc1Nc1nc(Nc2ccc(N3CCOCC3)cc2F)ncc1Cl | 
7 | 329 | 160 | NC(=O)c1ccccc1Nc1ccnc(Nc2ccc(N3CCOCC3)cc2)c1 | 
8 | 2.5 | 1.2 | NC(=O)c1ccccc1Nc1nc(Nc2ccc(F)cc2)ncc1Cl | 
9 | 34 | 2.5 | NC(=O)c1ccccc1Nc1nc(Nc2ccc(Cl)cc2)ncc1Cl | 
10 |  | 374 | COc1cc(N2CCOCC2)ccc1Nc1cc(Nc2ccccc2C(N)=O)ccn1 | 
11 |  | > 20000 | CN(C)CCNC(=O)c1ccccc1Nc1ccnc(Nc2ccc(N3CCOCC3)cc2)c1 | 
12 | 1 | 0.28 | NC(=O)c1ccccc1Nc1nc(Nc2ccc(N3CCOCC3)cc2)ncc1Cl | Drug uptake (Brain): 100%; half-life [4]: 1 h; AUC [9]: 0.1 µM·h; concentration at 2 h [6]: 830 nM; concentration at 2 h [7]: 840 nM; clearance [10]: 59 mL/min/kg; bioavailability [11]: 8%
13 | 590 | 320 | CNC(=O)c1ccccc1Nc1cc(Nc2ccc(N3CCOCC3)cc2OC)ncc1F | 
14 | 90 | 61 | CNC(=O)c1ccccc1Nc1cc(Nc2ccc(N3CCOCC3)cc2)ncc1C(F)(F)F | 
15 | 0.71 | 0.77 | N#Cc1ccc(Nc2ncc(Cl)c(Nc3ccccc3C(N)=O)n2)cc1 | 
16 |  | 132 | COc1cc(Nc2cc(Nc3ccccc3C(N)=O)ccn2)ccc1N1CCOCC1 | 
17 | 82 | 68 | CNC(=O)c1ccccc1Nc1cc(Nc2ccc(N3CCOCC3)cc2OC)ncc1Br | 
18 | 0.51 | 0.25 | NC(=O)c1ccccc1Nc1nc(Nc2ccc(N3CCOCC3)c(F)c2)ncc1Cl | 
19 |  | 3100 | CNC(=O)c1ccccc1Nc1ccnc(Nc2ccc(N3CCOCC3)cc2)c1 | 
20 |  |  | CNC(=O)c1ccccc1Nc1nc(Nc2ccc(N3CCOCC3)cc2OC)ncc1Cl | IC50 [2]: 485 nM; inhibition [12]: Active
21 |  | 1800 | O=C1NCc2cccc(Nc3ccnc(Nc4ccc(N5CCOCC5)cc4)c3)c21 | 
22 | 50 | 83 | CNC(=O)c1ccccc1Nc1cc(Nc2ccc(N3CCOCC3)cc2OC)ncc1Cl | 
23 | 0.69 | 0.31 | Cc1cc(Nc2ncc(Cl)c(Nc3ccccc3C(N)=O)n2)ccc1N1CCOCC1 | 
24 | 1 | 0.42 | COc1ccc(Nc2ncc(Cl)c(Nc3ccccc3C(N)=O)n2)cc1 | 
25 | > 3000 | 510 | CNC(=O)c1ccccc1Nc1cc(Nc2ccc(N3CCOCC3)cc2OC)ncc1C#N | 
26 | 0.24 | 0.16 | NC(=O)c1ccccc1Nc1nc(Nc2ccc(N3CCCC3=O)cc2)ncc1Cl | Drug uptake (Brain): 2%; half-life [4]: 0.6 h; AUC [9]: 0.2 µM·h; concentration at 2 h [6]: 15 nM; concentration at 2 h [7]: 680 nM; clearance [10]: 10 mL/min/kg; bioavailability [11]: 3%
27 | 0.68 | 0.28 | COc1cc(Nc2ncc(Cl)c(Nc3ccccc3C(N)=O)n2)ccc1N1CCOCC1 | Drug uptake (Brain): 31%; half-life [4]: 1 h; AUC (Rattus norvegicus [5]): 1.3 µM·h; concentration at 2 h [6]: 800 nM; concentration at 2 h [7]: 2600 nM; inhibition [12]: Active; F (Rattus norvegicus [8]): 17%; EC50 [13]: 23 nM
